Assay results taken from US9717222B2, “Taste independent brain nutrient sensor that mediates hunger” (New York University, priority 2014, dated 2017).
“Also recorded” adds a separate entry of the source.

Columns and labels:
hemolymph glycemia = experiment: Prandial rise of hemolymph glycemia after glucose feeding with or without phlorizin; assay type: in vivo, Drosophila melanogaster; details: 18-hour starved flies fed 100 mM glucose with 10 mM phlorizin for 20 minutes (FIG. 1b)
Description: Glycogen and glycemia were measured as previously described^6. For the prandial rise of hemolymph glycemia, flies were starved for 18 hours, and then fed with 100 mM glucose (with or without 10 mM phlorizin) for 15-20 minutes. Their hemolymph was immediately collected and measured.

Drosophila melanogaster = experiment: Two-choice feeding assay (food preference); assay type: in vivo; details: for food choice: 200 mM L-glucose+phlorizin versus 50 mM D-glucose+phlorizin: 18 hours food deprivation (FIG. 4); for food choice: glucose mixed with phlorizin versus plain agar: 100 mM glucose
Description: Feeding assays were performed as previously described^6 using 50 flies per two-choice arena. Briefly, ˜50 4-8 days old male flies were starved in an empty vial with wet Kim wipe for 5 or 18 hours, and then given a choice between two sugars, or a sugar and plain agar for 2 hours. Food preference was determined as percent preference index (PI %) by scoring the abdomen color of each fly: % PI=(#eaten food1+0.5×#eaten both)−(#eaten food2+0.5×#eaten both)]/(total #flies eaten) All sugars, except for L-glucose (Carbosynth), were from Sigma. For FIG. 1c, 10 mM phlorizin (Sigma) was added to warm agar with or without sugar. For the experiments in the dark, individual plates were wrapped in aluminum foil and then placed in a dark drawer while tested flies were making a choice between the two substrates. For the neural silencing experiments, flies bearing UAS-Kir2.1, Ptubulin-GAL80^ts, and a GAL4 driver were treated as described^17. These flies were raised at 18° C., incubated at 29° C. for 40 hours, starved at 29° C. for next 18 hrs and then tested in the two-choice assay at room temperature. For a negative control, the flies were raised and starved at 18° C., and tested at room temperature. Because metabolism is slower at 18° C. than at 25-29° C., the flies at 18° C. needed to be starved for a longer period. Thus, we determined that the 18 hours of starvation at 25-29° C. is equivalent to the 50-60 hours of starvation at 18° C. Also, see FIG. 11.

## O=C(CCc1ccc(O)cc1)c1c(O)cc(O)cc1O[C@@H]1O[C@H](CO)[C@@H](O)[C@H](O)[C@H]1O [Phlorizin]
Hemolymph glycemia
  prandial rise in hemolymph glycemia: preventing a prandial rise in glycemia
Drosophila melanogaster; control flies
  food choice: 200 mM L-glucose+phlorizin versus 50 mM D-glucose+phlorizin: chose the more concentrated (sweeter) L-glucose; also recorded: chose the sweeter L-glucose
Drosophila melanogaster; control poxnΔM22-B5;SuperA158, 18 h food deprived, 10 mM phlorizin (FIG. 1c)
  food choice: glucose mixed with phlorizin versus plain agar: can distinguish glucose mixed with phlorizin from agar
Drosophila melanogaster; taste-blind (poxnΔM22-B5) and sugar-blind (Gr5a;Gr64a) mutants
  food choice: 200 mM L-glucose+phlorizin versus 50 mM D-glucose+phlorizin: failed to discriminate between Lglucose+phlorizin and D-glucose+phlorizin; also recorded: showed equal preference for these two enantiomers
Drosophila melanogaster; taste-blind poxnΔM22-B5, 18 h food deprived, 100 mM fructose, 10 mM phlorizin (FIG. 1c)
  food choice: fructose mixed with phlorizin versus plain agar: able to detect the nutritional value of fructose mixed with phlorizin
Drosophila melanogaster; taste-blind poxnΔM22-B5, 18 h food deprived, 10 mM phlorizin (FIG. 1c)
  food choice: glucose mixed with phlorizin versus plain agar: failed to consume glucose mixed with phlorizin
